Assay results as given in ChEMBL document CHEMBL4219066, “Identification and Mitigation of Reactive Metabolites of 2-Aminoimidazole-Containing Microsomal Prostaglandin E Synthase-1 Inhibitors Terminated Due to Clinical Drug-Induced Liver Injury” (J Med Chem, 2018).

Legend:
[1] = Drug level in human hepatocytes treated with 2-(2-Chloro-5-(pivalamidomethyl)benzamido)-N-phenyl-1Himidazole-4-carboxamide at 2 uM after 4 hrs by LC-MS/MS analysis; type: ADME, cell-based, Hepatocyte
[2] = Drug level in rat hepatocytes treated with 2-(2-Chloro-5-(pivalamidomethyl)benzamido)-N-phenyl-1Himidazole-4-carboxamide at 2 uM after 4 hrs by LC-MS/MS analysis; type: ADME, cell-based, Hepatocyte
[3] = Drug level in rat hepatocytes treated with 2-Chloro-N-(4-(hydroxymethyl)-1H-imidazol-2-yl)-5-(pivalamidomethyl)benzamide at 2 uM after 4 hrs by LC-MS/MS analysis; type: ADME, cell-based, Hepatocyte
[4] = Drug level in human hepatocytes treated with 2-Chloro-N-(4-(hydroxymethyl)-1H-imidazol-2-yl)-5-(pivalamidomethyl)benzamide at 2 uM after 4 hrs by LC-MS/MS analysis; type: ADME, cell-based, Hepatocyte
[5] = Drug metabolism in rat hepatocytes assessed as metabolite formation at 2 uM after 4 hrs by LC-MS/MS analysis; type: ADME, cell-based, Hepatocyte
[6] = Drug metabolism in human hepatocytes assessed as metabolite formation at 2 uM after 4 hrs by LC-MS/MS analysis; type: ADME, cell-based, Hepatocyte
[7] = Drug metabolism in Beagle dog plasma assessed as 2-(difluoromethyl)-5-((2-hydroxy-2-methylpropanamido)methyl)-N-(4-methyl-5-(4-(trifluoromethyl)phenyl)-1H-imidazol-2-yl)nicotinamide formation at 300 to 600 mg/kg, po measured after 2 hrs post dose by LC/MS analysis; type: ADME, organism-based, Canis lupus familiaris; conditions: in vivo
[8] = Drug metabolism in human liver microsomes assessed as metabolite M9 formation at 2 uM in presence of 1:1 ratio of unlabeled GSH and [glycine 13C2,15N]-labelled GSH after 0.5 hrs by HPLC-MS analysis; type: ADME, microsome
[9] = Drug metabolism in rat hepatocytes assessed as metabolite M7 formation at 2 uM after 4 hrs by LC-MS/MS analysis; type: ADME, cell-based, Hepatocyte
[10] = In vivo drug metabolism in human urine assessed as 2-(difluoromethyl)-5-((3-hydroxy-2-methylpropanamido)methyl)-N-(4-methyl-5-(4-(trifluoromethyl)phenyl)-1H-imidazol-2-yl)nicotinamide formation by HPLC-MS analysis; type: ADME, organism-based
[11] = In vivo drug metabolism in human plasma assessed as 2-(difluoromethyl)-5-(methacrylamidomethyl)-N-(4-methyl-5-(4-(trifluoromethyl)phenyl)-1H-imidazol-2-yl)nicotinamide formation HPLC-MS analysis; type: ADME, organism-based
[12] = Drug metabolism in human hepatocytes assessed as 4-methyl-5-(4-(trifluoromethyl)phenyl)-1H-imidazol-2-amine formation at 2 uM after 4 hrs by LC-MS/MS analysis; type: ADME, cell-based, Hepatocyte
[13] = Drug metabolism in human liver microsomes assessed as metabolite M7 formation at 2 uM in presence of 1:1 ratio of unlabeled GSH and [glycine 13C2,15N]-labelled GSH after 0.5 hrs by HPLC-MS analysis; type: ADME, microsome
[14] = Drug metabolism in dog hepatocytes assessed as 2-(difluoromethyl)-5-((2-hydroxy-2-methylpropanamido)methyl)-N-(4-methyl-5-(4-(trifluoromethyl)phenyl)-1H-imidazol-2-yl)nicotinamide formation at 2 uM after 4 hrs by LC-MS/MS analysis; type: ADME, cell-based, Canis lupus familiaris, Hepatocyte
[15] = Drug metabolism in Sprague-Dawley rat plasma assessed as 2-(difluoromethyl)-5-((3-hydroxy-2-methylpropanamido)methyl)-N-(4-methyl-5-(4-(trifluoromethyl)phenyl)-1H-imidazol-2-yl)nicotinamide formation at 1000 mg/kg, po measured after 2 hrs post dose by LC/MS analysis; type: ADME, organism-based; conditions: in vivo
[16] = In vivo drug metabolism in human urine assessed as N-carbamimidoyl-2-(difluoromethyl)-5-(isobutyramidomethyl)nicotinamide formation by HPLC-MS analysis; type: ADME, organism-based
[17] = Drug metabolism in human hepatocytes assessed as N-carbamimidoyl-2-(difluoromethyl)-5-(isobutyramidomethyl)nicotinamide formation at 2 uM after 4 hrs by LC-MS/MS analysis; type: ADME, cell-based, Hepatocyte
[18] = Drug metabolism in Beagle dog plasma assessed as 2-(difluoromethyl)-5-((3-hydroxy-2-methylpropanamido)methyl)-N-(4-methyl-5-(4-(trifluoromethyl)phenyl)-1H-imidazol-2-yl)nicotinamide formation at 300 to 600 mg/kg, po measured after 2 hrs post dose by LC/MS analysis; type: ADME, organism-based, Canis lupus familiaris; conditions: in vivo
[19] = Drug metabolism in Sprague-Dawley rat plasma assessed as 4-methyl-5-(4-(trifluoromethyl)phenyl)-1H-imidazol-2-amine formation at 1000 mg/kg, po measured after 2 hrs post dose by LC/MS analysis; type: ADME, organism-based; conditions: in vivo
[20] = Drug metabolism in rat hepatocytes assessed as 4-methyl-5-(4-(trifluoromethyl)phenyl)-1H-imidazol-2-amine formation at 2 uM after 4 hrs by LC-MS/MS analysis; type: ADME, cell-based, Hepatocyte
[21] = Drug metabolism in Sprague-Dawley rat plasma assessed as 2-(difluoromethyl)-5-((2-hydroxy-2-methylpropanamido)methyl)-N-(4-methyl-5-(4-(trifluoromethyl)phenyl)-1H-imidazol-2-yl)nicotinamide formation at 1000 mg/kg, po measured after 2 hrs post dose by LC/MS analysis; type: ADME, organism-based; conditions: in vivo
[22] = Drug metabolism in rat hepatocytes assessed as 2-(difluoromethyl)-5-((3-hydroxy-2-methylpropanamido)methyl)-N-(4-methyl-5-(4-(trifluoromethyl)phenyl)-1H-imidazol-2-yl)nicotinamide formation at 2 uM after 4 hrs by LC-MS/MS analysis; type: ADME, cell-based, Hepatocyte
[23] = Drug metabolism in Beagle dog plasma assessed as 4-methyl-5-(4-(trifluoromethyl)phenyl)-1H-imidazol-2-amine formation at 300 to 600 mg/kg, po measured after 2 hrs post dose by LC/MS analysis; type: ADME, organism-based, Canis lupus familiaris; conditions: in vivo
[24] = In vivo drug metabolism in human urine assessed as 5-(aminomethyl)-2-(difluoromethyl)-N-(4-methyl-5-(4-(trifluoromethyl)phenyl)-1H-imidazol-2-yl)nicotinamide formation by HPLC-MS analysis; type: ADME, organism-based
[25] = Drug metabolism in rat hepatocytes assessed as 2-(difluoromethyl)-5-((2-hydroxy-2-methylpropanamido)methyl)-N-(4-methyl-5-(4-(trifluoromethyl)phenyl)-1H-imidazol-2-yl)nicotinamide formation at 2 uM after 4 hrs by LC-MS/MS analysis; type: ADME, cell-based, Hepatocyte
[26] = In vivo drug metabolism in human plasma assessed as 2-(difluoromethyl)-5-((3-hydroxy-2-methylpropanamido)methyl)-N-(4-methyl-5-(4-(trifluoromethyl)phenyl)-1H-imidazol-2-yl)nicotinamide formation HPLC-MS analysis; type: ADME, organism-based
[27] = Drug metabolism in human hepatocytes assessed as 2-(difluoromethyl)-5-((2-hydroxy-2-methylpropanamido)methyl)-N-(4-methyl-5-(4-(trifluoromethyl)phenyl)-1H-imidazol-2-yl)nicotinamide formation at 2 uM after 4 hrs by LC-MS/MS analysis; type: ADME, cell-based, Hepatocyte
[28] = In vivo drug metabolism in human urine assessed as 2-(difluoromethyl)-5-((2-hydroxy-2-methylpropanamido)methyl)-N-(4-methyl-5-(4-(trifluoromethyl)phenyl)-1H-imidazol-2-yl)nicotinamide formation by HPLC-MS analysis; type: ADME, organism-based
[29] = Drug metabolism in rat hepatocytes assessed as 2-(difluoromethyl)-5-(methacrylamidomethyl)-N-(4-methyl-5-(4-(trifluoromethyl)phenyl)-1H-imidazol-2-yl)nicotinamide formation at 2 uM after 4 hrs by LC-MS/MS analysis; type: ADME, cell-based, Hepatocyte
[30] = Drug metabolism in rat hepatocytes assessed as N-carbamimidoyl-2-(difluoromethyl)-5-(isobutyramidomethyl)nicotinamide formation at 2 uM after 4 hrs by LC-MS/MS analysis; type: ADME, cell-based, Hepatocyte
[31] = Drug metabolism in human hepatocytes assessed as metabolite M7 formation at 2 uM after 4 hrs by LC-MS/MS analysis; type: ADME, cell-based, Hepatocyte
[32] = Drug metabolism in dog hepatocytes assessed as N-carbamimidoyl-2-(difluoromethyl)-5-(isobutyramidomethyl)nicotinamide formation at 2 uM after 4 hrs by LC-MS/MS analysis; type: ADME, cell-based, Canis lupus familiaris, Hepatocyte
[33] = Drug metabolism in Sprague-Dawley rat plasma assessed as 5-(aminomethyl)-2-(difluoromethyl)-N-(4-methyl-5-(4-(trifluoromethyl)phenyl)-1H-imidazol-2-yl)nicotinamide formation at 1000 mg/kg, po measured after 2 hrs post dose by LC/MS analysis; type: ADME, organism-based; conditions: in vivo
[34] = Drug metabolism in human hepatocytes assessed as 2-(difluoromethyl)-5-((3-hydroxy-2-methylpropanamido)methyl)-N-(4-methyl-5-(4-(trifluoromethyl)phenyl)-1H-imidazol-2-yl)nicotinamide formation at 2 uM after 4 hrs by LC-MS/MS analysis; type: ADME, cell-based, Hepatocyte
[35] = In vivo drug metabolism in human plasma assessed as 2-(difluoromethyl)-5-((2-hydroxy-2-methylpropanamido)methyl)-N-(4-methyl-5-(4-(trifluoromethyl)phenyl)-1H-imidazol-2-yl)nicotinamide formation HPLC-MS analysis; type: ADME, organism-based

CC(C)(C)C(=O)NCc1ccc(Cl)c(C(=O)Nc2nc(C(=O)O)c[nH]2)c1
Drug metabolism [1]: Metabolite_Detected | Drug metabolism [2]: Metabolite_Detected | Drug metabolism [3]: Metabolite_Detected | Drug metabolism [4]: Metabolite_Detected

CC(C)(C)C(=O)NCc1ccc(Cl)c(C(=O)Nc2nc(C(N)=O)c[nH]2)c1
Drug metabolism [5]: Metabolite_Notdetected | Drug metabolism [6]: Metabolite_Notdetected

Cc1nc(NC(=O)c2cc(CNC(=O)C(C)C)cnc2C(F)F)[nH]c1-c1ccc(C(F)(F)F)cc1
Drug metabolism [7]: Metabolite_Detected | Drug metabolism [8]: Metabolite_Detected | Drug metabolism [9]: Metabolite_Detected | Drug metabolism [10]: Metabolite_Detected | Drug metabolism [11]: Metabolite_Detected | Drug metabolism [12]: Metabolite_Detected | Drug metabolism [13]: Metabolite_Detected | Drug metabolism [14]: Metabolite_Detected | Drug metabolism [15]: Metabolite_Detected | Drug metabolism [16]: Metabolite_Detected | Drug metabolism [17]: Metabolite_Detected | Drug metabolism [18]: Metabolite_Detected | Drug metabolism [19]: Metabolite_Detected | Drug metabolism [20]: Metabolite_Detected | Drug metabolism [21]: Metabolite_Detected | Drug metabolism [22]: Metabolite_Detected | Drug metabolism [23]: Metabolite_Detected | Drug metabolism [24]: Metabolite_Detected | Drug metabolism [25]: Metabolite_Detected | Drug metabolism [26]: Metabolite_Detected | Drug metabolism [27]: Metabolite_Detected | Drug metabolism [28]: Metabolite_Detected | Drug metabolism [29]: Metabolite_Detected | Drug metabolism [30]: Metabolite_Detected | Drug metabolism [31]: Metabolite_Detected | Drug metabolism [32]: Metabolite_Detected | Drug metabolism [33]: Metabolite_Detected | Drug metabolism [34]: Metabolite_Detected | Drug metabolism [35]: Metabolite_Detected
